Experimental data: ChEMBL document CHEMBL1138924, “Crystal structure, spectroscopic, and biological study of the copper(II) complex with third-generation quinolone antibiotic sparfloxacin” (2006)
In brackets after ≈: the same amount, converted by molar mass.

Tests used:
Format in all cases: functional
Staphylococcus aureus = assay: Antimicrobial activity against Staphylococcus aureus
Escherichia coli = assay: Antimicrobial activity against Escherichia coli
Pseudomonas aeruginosa = assay: Antimicrobial activity against Pseudomonas aeruginosa

- MIC (Staphylococcus aureus): 0.5 µg/mL (≈ 1.27 µM)
- MIC (Escherichia coli): 8 µg/mL (≈ 20.4 µM)
- MIC (Pseudomonas aeruginosa): 0.25 µg/mL (≈ 0.637 µM)
SMILES: C[C@@H]1CN(c2c(F)c(N)c3c(=O)c(C(=O)O)cn(C4CC4)c3c2F)C[C@H](C)N1 [SPARFLOXACIN]
